Results as given in US12643910B2, “Substituted pyrazolo[3,4-b]pyridines as ectonucleotide pyrophosphatase/phosphodiesterase 1 (ENPP1) modulators” (SANFORD BURNHAM PREBYS MEDICAL DISCOVERY INSTITUTE, priority 2019, dated 2026).

What was measured:
human ENPP1 = molecular target: T1, human ENPP1 (Homo sapiens, UniProt P22413); assay: ENPP1 assay with ATP substrate (Transcreener AMP2/GMP2 TR-FRET); format: biochemical; settings: 1 hour at room temperature
T1 construct: made in house
T1 sequence (P22413 1-925): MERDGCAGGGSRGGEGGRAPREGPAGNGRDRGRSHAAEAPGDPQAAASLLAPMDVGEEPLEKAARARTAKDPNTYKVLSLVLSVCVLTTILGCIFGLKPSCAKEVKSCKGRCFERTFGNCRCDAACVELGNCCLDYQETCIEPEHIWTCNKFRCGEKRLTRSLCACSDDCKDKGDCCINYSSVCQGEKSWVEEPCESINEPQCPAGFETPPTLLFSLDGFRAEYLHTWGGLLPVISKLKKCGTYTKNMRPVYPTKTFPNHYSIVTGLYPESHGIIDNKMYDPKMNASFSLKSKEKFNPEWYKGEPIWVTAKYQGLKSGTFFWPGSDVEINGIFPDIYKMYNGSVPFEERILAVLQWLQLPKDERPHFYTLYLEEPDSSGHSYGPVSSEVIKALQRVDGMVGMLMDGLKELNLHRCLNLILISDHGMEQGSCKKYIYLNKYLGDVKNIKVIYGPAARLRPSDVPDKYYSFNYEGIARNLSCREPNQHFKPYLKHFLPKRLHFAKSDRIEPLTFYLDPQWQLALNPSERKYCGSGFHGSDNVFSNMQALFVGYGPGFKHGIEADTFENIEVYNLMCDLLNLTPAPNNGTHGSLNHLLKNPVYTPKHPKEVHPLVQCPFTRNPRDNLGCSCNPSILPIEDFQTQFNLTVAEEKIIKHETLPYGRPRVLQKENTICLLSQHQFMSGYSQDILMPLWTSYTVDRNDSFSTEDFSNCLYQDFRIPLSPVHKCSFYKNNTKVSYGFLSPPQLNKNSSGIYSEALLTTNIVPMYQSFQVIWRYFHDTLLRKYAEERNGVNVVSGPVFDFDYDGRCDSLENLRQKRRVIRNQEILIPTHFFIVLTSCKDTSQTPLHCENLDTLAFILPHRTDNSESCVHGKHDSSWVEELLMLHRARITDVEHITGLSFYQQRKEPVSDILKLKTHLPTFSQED
Outline: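 Reaction ran 1 h at room temperature in pH 7.5 Tris with MgCl2, TCEP, Tween 20 and 1% DMSO. ATP was added as a 300 nM stock and enzyme as an 8.5 μM stock. After EDTA stop, AMP was read by TR-FRET tracer displacement. Percent inhibition used enzyme/no-enzyme controls; IC50 was fitted with a variable slope.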

ENPP3 = molecular target: T2, ENPP3 (Homo sapiens, UniProt O14638); assay: ENPP3 Km ATP assay; format: biochemical; settings: ATP at Km
T2 sequence (O14638 1-875): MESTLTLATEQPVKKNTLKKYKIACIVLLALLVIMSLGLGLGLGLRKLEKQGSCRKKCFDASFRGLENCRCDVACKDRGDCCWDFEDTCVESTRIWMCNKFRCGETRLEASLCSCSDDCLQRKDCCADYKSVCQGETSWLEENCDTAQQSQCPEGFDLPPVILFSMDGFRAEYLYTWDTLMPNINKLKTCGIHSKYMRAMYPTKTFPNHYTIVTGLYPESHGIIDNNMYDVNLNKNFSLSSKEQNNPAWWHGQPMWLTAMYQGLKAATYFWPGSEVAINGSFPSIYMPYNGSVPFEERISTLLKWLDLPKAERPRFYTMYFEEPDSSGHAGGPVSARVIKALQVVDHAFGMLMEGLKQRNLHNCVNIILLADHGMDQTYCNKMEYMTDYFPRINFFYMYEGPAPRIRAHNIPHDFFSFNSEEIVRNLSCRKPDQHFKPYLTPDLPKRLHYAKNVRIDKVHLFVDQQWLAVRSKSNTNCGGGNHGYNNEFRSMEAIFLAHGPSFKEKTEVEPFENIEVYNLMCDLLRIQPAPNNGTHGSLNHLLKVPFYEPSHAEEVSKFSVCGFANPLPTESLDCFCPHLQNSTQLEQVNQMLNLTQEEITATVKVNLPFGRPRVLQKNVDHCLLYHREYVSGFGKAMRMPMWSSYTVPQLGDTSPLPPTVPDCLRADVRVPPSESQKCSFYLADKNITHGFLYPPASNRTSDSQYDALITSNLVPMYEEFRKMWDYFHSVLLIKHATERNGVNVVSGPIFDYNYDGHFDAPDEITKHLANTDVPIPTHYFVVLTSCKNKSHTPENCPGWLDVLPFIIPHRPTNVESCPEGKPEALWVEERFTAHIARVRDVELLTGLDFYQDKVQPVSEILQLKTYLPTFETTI

In the case of `NS(=O)(=O)c1ccc(COc2ncnc3scc(-c4ccccc4)c23)cc1` [Example 1.70, 4-((5-Phenylthieno[2,3-d]pyrimidin-4-yl)oxymethyl)benzenesulfonamide], the IC50 (human ENPP1) was 0.1 to 1 µM and the IC50 (ENPP3) was 1 to 20 µM.

In the case of `NS(=O)(=O)c1ccc(CNc2nc(-c3ccccn3)nc3scc(-c4ccccc4)c23)cc1F` [Example 1.13, 2-Fluoro-4-(((5-phenyl-2-(pyridin-2-yl)thieno[2,3-d]pyrimidin-4-yl)amino)methyl)benzenesulfonamide], the IC50 (human ENPP1) was < 0.1 µM and the IC50 (ENPP3) was 0.1 to 1 µM.

`NS(=O)(=O)c1ccc(CNc2nc(N3CCCCC3)nc3scc(-c4ccccc4)c23)cc1` [Example 1.39, 4-(((5-Phenyl-2-(piperidin-1-yl)thieno[2,3-d]pyrimidin-4-yl)amino)methyl)-benzenesulfonamide] was tested, and the IC50 (human ENPP1) was 0.1 to 1 µM and the IC50 (ENPP3) was 0.1 to 1 µM.

In the case of `Fc1ccccc1CNc1nc(-c2ccccn2)nc2scc(-c3ccccc3)c12` [Example 1.8, (2-Fluoro-benzyl)-(5-phenyl-2-pyridin-2-yl-thieno[2,3-d]pyrimidin-4-yl)-amine], the IC50 (human ENPP1) was > 20 µM and the IC50 (ENPP3) was > 20 µM.

In the case of `Cc1csc2c(N3CCC(NCCCc4ccnc(F)c4)CC3)ncnc12` [Example 3.37, N-(3-(2-Fluoropyridin-4-yl)propyl)-1-(7-methylthieno[3,2-d]pyrimidin-4-yl)piperidin-4-amine], the IC50 (human ENPP1) was 0.1 to 1 µM and the IC50 (ENPP3) was > 20 µM.

For `Cc1csc2c(N3CCC(NC(=O)CCc4ccc(F)cc4)CC3)ncnc12` [Example 3.20, 3-(4-Fluorophenyl)-N-(1-(7-methylthieno[3,2-d]pyrimidin-4-yl)piperidin-4-yl)propanamide], the IC50 (human ENPP1) was > 20 µM and the IC50 (ENPP3) was > 20 µM.

For `CN(C)c1nc(NCc2ccc(S(N)(=O)=O)cc2)c2c(-c3ccccc3)csc2n1` [Example 1.43, 4-(((2-(Dimethylamino)-5-phenylthieno[2,3-d]pyrimidin-4-yl)amino)methyl)-benzenesulfonamide], the IC50 (human ENPP1) was < 0.1 µM and the IC50 (ENPP3) was 0.1 to 1 µM.

For `Cn1ncc2c(NCc3ccc(S(N)(=O)=O)cn3)cc(Cl)nc21` [Example 2.142, 6-(((6-Chloro-1-methyl-1H-pyrazolo[3,4-b]pyridin-4-yl)amino)methyl)pyridine-3-sulfonamide], the IC50 (human ENPP1) was < 0.1 µM and the IC50 (ENPP3) was 0.1 to 1 µM.

In the case of `O=C(CCc1ccc(F)cc1)NC1CCN(c2ncnc3c(I)csc23)CC1` [Example 3.48, 3-(4-Fluorophenyl)-N-(1-(7-iodothieno[3,2-d]pyrimidin-4-yl)piperidin-4-yl)propanamide], the IC50 (human ENPP1) was 0.1 to 1 µM and the IC50 (ENPP3) was > 20 µM.

In the case of `CN1CCC(n2ncc3c(NCc4ccc(S(N)(=O)=O)cc4)ncnc32)CC1` [Example 2.43, 4-(((1-(1-Methylpiperidin-4-yl)-1H-pyrazolo[3,4-d]pyrimidin-4-yl)amino)methyl)-benzenesulfonamide], the IC50 (human ENPP1) was > 20 µM and the IC50 (ENPP3) was 1 to 20 µM.

`Cc1cc(CNc2nc(-c3ccccn3)nc3scc(-c4ccccc4)c23)ccc1S(N)(=O)=O` [Example 1.19, 2-Methyl-4-(((5-phenyl-2-(pyridin-2-yl)thieno[2,3-d]pyrimidin-4-yl)amino)methyl)-benzenesulfonamide] was tested, and the IC50 (human ENPP1) was < 0.1 µM and the IC50 (ENPP3) was 0.1 to 1 µM.

`Cc1csc2c(N3CCC(NCCCc4ccc(Cl)cc4)CC3)ncnc12` [Example 3.28, N-(3-(4-Chlorophenyl)propyl)-1-(7-methylthieno[3,2-d]pyrimidin-4-yl)piperidin-4-amine] was tested, and the IC50 (human ENPP1) was < 0.1 µM and the IC50 (ENPP3) was > 20 µM.

`NS(=O)(=O)c1ccc(CNc2nc(-c3ccccn3)nc3scc(-c4cccnc4)c23)cc1` [Example 1.22, 4-(((2-(Pyridin-2-yl)-5-(pyridin-3-yl)thieno[2,3-d]pyrimidin-4-yl)amino)methyl)-benzenesulfonamide] was tested, and the IC50 (human ENPP1) was < 0.1 µM and the IC50 (ENPP3) was 1 to 20 µM.

In the case of `Cn1ncc2c(NCc3ccc(S(N)(=O)=O)c(Cl)c3)ccnc21` [Example 2.68, 2-Chloro-4-(((1-methyl-1H-pyrazolo[3,4-b]pyridin-4-yl)amino)methyl)-benzenesulfonamide], the IC50 (human ENPP1) was 0.1 to 1 µM and the IC50 (ENPP3) was 1 to 20 µM.

`NS(=O)(=O)c1ccc(CNc2nc(-c3cccnc3)nc3scc(-c4ccccc4)c23)s1` [Example 1.30, 5-(((5-Phenyl-2-(pyridin-3-yl)thieno[2,3-d]pyrimidin-4-yl)amino)methyl)thiophene-2-sulfonamide] was tested, and the IC50 (human ENPP1) was 1 to 20 µM and the IC50 (ENPP3) was > 20 µM.

In the case of `Cc1cnccc1CCC(=O)NC1CCN(c2ncnc3c(C)csc23)CC1` [Example 3.34, 3-(3-Methylpyridin-4-yl)-N-(1-(7-methylthieno[3,2-d]pyrimidin-4-yl)piperidin-4-yl)propanamide], the IC50 (human ENPP1) was > 20 µM and the IC50 (ENPP3) was > 20 µM.

`CCN(CCO)c1nc(NCc2ccc(S(N)(=O)=O)cc2)c2c(-c3ccccc3)csc2n1` [Example 1.52, 4-((2-(N-Ethyl-N-(2-hydroxyethyl)amino)-5-phenylthieno[2,3-d]pyrimidin-4-yl)aminomethyl)-benzenesulfonamide] was tested, and the IC50 (human ENPP1) was < 0.1 µM and the IC50 (ENPP3) was 0.1 to 1 µM.

`Cc1ccc(CNc2nc(-c3ccccn3)nc3scc(-c4ccccc4)c23)cc1` [Example 1.7, (4-Methyl-benzyl)-(5-phenyl-2-pyridin-2-yl-thieno[2,3-d]pyrimidin-4-yl)-amine] was tested, and the IC50 (human ENPP1) was > 20 µM and the IC50 (ENPP3) was > 20 µM.

`Cc1cccc(CCCNC2CCN(c3ncnc4c(C)csc34)CC2)c1` [Example 3.17, 1-(7-Methylthieno[3,2-d]pyrimidin-4-yl)-N-(3-(m-tolyl)propyl)piperidin-4-amine] showed an IC50 (human ENPP1) of 0.1 to 1 µM and an IC50 (ENPP3) of 1 to 20 µM.

Compound `Cn1ncc2c(NCc3ccc(S(N)(=O)=O)cc3)nc(N)nc21` [Example 2.37, 4-(((6-Amino-1-methyl-1H-pyrazolo[3,4-d]pyrimidin-4-yl)amino)methyl)-benzenesulfonamide] has an IC50 (human ENPP1) of 0.1 to 1 µM and an IC50 (ENPP3) of 0.1 to 1 µM.

In the case of `CN(C)CCCNc1nc(NCc2ccc(S(N)(=O)=O)cc2)c2c(-c3ccccc3)csc2n1` [Example 1.59, 4-((2-(3-Dimethylaminopropyl)amino-5-phenylthieno[2,3-d]pyrimidin-4-yl)aminomethyl)-benzenesulfonamide], the IC50 (human ENPP1) was < 0.1 µM and the IC50 (ENPP3) was < 0.1 µM.

`CCNc1cc(NCc2ccc(S(N)(=O)=O)cc2F)c2cnn(C)c2n1` [Example 2.144, 4-(((6-(Ethylamino)-1-methyl-1H-pyrazolo[3,4-b]pyridin-4-yl)amino)methyl)-3-fluorobenzenesulfonamide] gave an IC50 (human ENPP1) of 0.1 to 1 µM and an IC50 (ENPP3) of 0.1 to 1 µM.

With `Cc1csc2c(N3CCC(NCCCc4cccc(C(F)(F)F)c4)CC3)ncnc12` [Example 3.12, 1-(7-Methylthieno[3,2-d]pyrimidin-4-yl)-N-(3-(3-(trifluoromethyl)phenyl)propyl)piperidin-4-amine] the IC50 (human ENPP1) was 0.1 to 1 µM and the IC50 (ENPP3) was > 20 µM.

With `Cn1nc(Br)c2c(NCc3ccc(S(N)(=O)=O)cc3)nc(N3CCCCC3)nc21` [Example 2.131, 4-((3-Bromo-1-methyl-6-piperidino-1H-pyrazolo[3,4-d]pyrimidin-4-yl)aminomethyl)benzenesulfonamide] the IC50 (human ENPP1) was 1 to 20 µM and the IC50 (ENPP3) was < 0.1 µM.

Compound `Cn1ncc2c(NCc3ccc(S(N)(=O)=O)cc3Cl)ncnc21` [Example 2.47, 3-Chloro-4-(((1-methyl-1H-pyrazolo[3,4-d]pyrimidin-4-yl)amino)methyl)-benzenesulfonamide] has an IC50 (human ENPP1) of 0.1 to 1 µM and an IC50 (ENPP3) of 1 to 20 µM.
